Data from US7482453B2, “Process for the manufacture of (+)-(S)-clopidogrel bisulfate form-1” (Wockhardt Ltd., priority 2003, dated 2009).
Structures can show the parent of a compound that is named as a salt.

Columns and labels:
platelet aggregation = conditions: cited from earlier work; for Platelet aggregation inhibiting activity of the enantiomers: as described in EP 281459
[1] = Form-I obtained by the ethyl acetate process
[2] = versus Aspirin; cited from earlier work

In the case of `COC(=O)C(c1ccccc1Cl)N1CCc2sccc2C1` (single isomer, unassigned) [levo-rotatory isomer], the “Platelet aggregation inhibiting activity of the enantiomers” value (platelet aggregation) is listed as “less active”.
In the case of `COC(=O)[C@H](c1ccccc1Cl)N1CCc2sccc2C1` [Form-I, Methyl-(+)-(S)-α-(2-Chlorophenyl)-6,7-dihydrothieno[3,2-c]pyridine-5(4H)-acetate bisulfate Form-I], the “Stability of the crystal form / conversion to other forms” value [1] was “stable and does not convert to any other forms”.
In the case of `COC(=O)[C@H](c1ccccc1Cl)N1CCc2sccc2C1` [Clopidogrel hydrogen sulfate, bisulfate of methyl-(+)-(S)-α-(2-chlorophenyl)-4,5,6,7-tetrahydrothieno[3,2,-c]pyridine-5-acetate], the “Platelet aggregation inhibiting activity of the enantiomers” value (platelet aggregation) is listed as “excellent platelet aggregation inhibiting activity”.
For `COC(=O)[C@H](c1ccccc1Cl)N1CCc2sccc2C1` [Clopidogrel], the “Gastrointestinal bleeding compared with Aspirin” value [2] is listed as “much less gastrointestinal bleeding than Asprin” and the “Effectiveness in blocking platelet aggregation compared with Aspirin” value (platelet aggregation; recent studies, versus Aspirin) is listed as “more effective in blocking platelet aggregation than Asprin”.
